Data: the NIST ThermoML archive (doi:10.1021/je9005618)

Test: xn = mol fraction of the nth substance listed
Conditions: 101 kPa, Liquid

CCn1cc[n+](C)c1.O=S(=O)([O-])C(F)(F)F [1-ethyl-3-methylimidazolium trifluoromethanesulfonate] + CCOC(C)=O
Conditions | mass density [kg/m3] | speed of sound [m/s]
278.15 K, x1 = 0.0501 | 967.32 | 1238
278.15 K, x1 = 0.1003 | 1011.38 | 1249
278.15 K, x1 = 0.1502 | 1051.15 | 1263.8
278.15 K, x1 = 0.2004 | 1087.57 | 1280.5
278.15 K, x1 = 0.3002 | 1150.92 | 1313.9
278.15 K, x1 = 0.4002 | 1203.84 | 1343.7
278.15 K, x1 = 0.5002 | 1248.95 | 1371.2
278.15 K, x1 = 0.6009 | 1288.17 | 1397
278.15 K, x1 = 0.6999 | 1321.89 | 1420.5
278.15 K, x1 = 0.8006 | 1351.91 | 1442.8
278.15 K, x1 = 0.8492 | 1365.02 | 1453
278.15 K, x1 = 0.9008 | 1378.11 | 1463.2
278.15 K, x1 = 0.9501 | 1389.89 | 1472.6
288.15 K, x1 = 0.0501 | 955.66 | 1193.7
288.15 K, x1 = 0.1003 | 999.99 | 1206.1
288.15 K, x1 = 0.1502 | 1040.09 | 1222.8
288.15 K, x1 = 0.2004 | 1076.84 | 1241.5
288.15 K, x1 = 0.3002 | 1140.7 | 1278.8
288.15 K, x1 = 0.4002 | 1194.03 | 1311.7
288.15 K, x1 = 0.5002 | 1239.47 | 1341.6
288.15 K, x1 = 0.6009 | 1278.96 | 1369.4
288.15 K, x1 = 0.6999 | 1312.9 | 1394
288.15 K, x1 = 0.8006 | 1343.1 | 1417.9
288.15 K, x1 = 0.8492 | 1356.29 | 1428.6
288.15 K, x1 = 0.9008 | 1369.47 | 1439.3
288.15 K, x1 = 0.9501 | 1381.32 | 1449
298.15 K, x1 = 0.0501 | 943.87 | 1150
298.15 K, x1 = 0.1003 | 988.52 | 1163.9
298.15 K, x1 = 0.1502 | 1028.97 | 1182.5
298.15 K, x1 = 0.2004 | 1066.05 | 1203
298.15 K, x1 = 0.3002 | 1130.49 | 1244.2
298.15 K, x1 = 0.4002 | 1184.26 | 1280.4
298.15 K, x1 = 0.5002 | 1230.04 | 1312.7
298.15 K, x1 = 0.6009 | 1269.8 | 1342.4
298.15 K, x1 = 0.6999 | 1303.96 | 1369
298.15 K, x1 = 0.8006 | 1334.35 | 1393.7
298.15 K, x1 = 0.8492 | 1347.63 | 1404.8
298.15 K, x1 = 0.9008 | 1360.89 | 1416
298.15 K, x1 = 0.9501 | 1372.81 | 1426
308.15 K, x1 = 0.0501 | 931.96 | 1106.8
308.15 K, x1 = 0.1003 | 976.94 | 1121.8
308.15 K, x1 = 0.1502 | 1017.77 | 1142.2
308.15 K, x1 = 0.2004 | 1055.22 | 1165.1
308.15 K, x1 = 0.3002 | 1120.28 | 1210.2
308.15 K, x1 = 0.4002 | 1174.52 | 1249.5
308.15 K, x1 = 0.5002 | 1220.67 | 1284.4
308.15 K, x1 = 0.6009 | 1260.71 | 1316
308.15 K, x1 = 0.6999 | 1295.11 | 1344.2
308.15 K, x1 = 0.8006 | 1325.68 | 1370
308.15 K, x1 = 0.8492 | 1339.04 | 1381.6
308.15 K, x1 = 0.9008 | 1352.38 | 1393.2
308.15 K, x1 = 0.9501 | 1364.37 | 1403.6
318.15 K, x1 = 0.0501 | 919.88 | 1063.9
318.15 K, x1 = 0.1003 | 965.24 | 1080.1
318.15 K, x1 = 0.1502 | 1006.48 | 1102.3
318.15 K, x1 = 0.2004 | 1044.34 | 1127.3
318.15 K, x1 = 0.3002 | 1110.07 | 1176.5
318.15 K, x1 = 0.4002 | 1164.82 | 1219
318.15 K, x1 = 0.5002 | 1211.35 | 1256.6
318.15 K, x1 = 0.6009 | 1251.69 | 1290.1
318.15 K, x1 = 0.6999 | 1286.31 | 1319.8
318.15 K, x1 = 0.8006 | 1317.07 | 1346.8
318.15 K, x1 = 0.8492 | 1330.51 | 1358.8
318.15 K, x1 = 0.9008 | 1343.92 | 1370.8
318.15 K, x1 = 0.9501 | 1355.98 | 1381.6
328.15 K, x1 = 0.0501 | 907.62 | 1021.3
328.15 K, x1 = 0.1003 | 953.35 | 1039.2
328.15 K, x1 = 0.1502 | 995.07 | 1062.7
328.15 K, x1 = 0.2004 | 1033.39 | 1090
328.15 K, x1 = 0.3002 | 1099.87 | 1143.3
328.15 K, x1 = 0.4002 | 1155.15 | 1189.3
328.15 K, x1 = 0.5002 | 1202.08 | 1229.4
328.15 K, x1 = 0.6009 | 1242.72 | 1264.9
328.15 K, x1 = 0.6999 | 1277.58 | 1296
328.15 K, x1 = 0.8006 | 1308.52 | 1324.1
328.15 K, x1 = 0.8492 | 1322.04 | 1336.5
328.15 K, x1 = 0.9008 | 1335.52 | 1348.9
328.15 K, x1 = 0.9501 | 1347.65 | 1360.1

CCn1cc[n+](C)c1.O=S(=O)([O-])C(F)(F)F [1-ethyl-3-methylimidazolium trifluoromethanesulfonate] + COC(C)=O
Conditions | mass density, 278.15 K [kg/m3] | mass density, 288.15 K [kg/m3] | mass density, 298.15 K [kg/m3] | mass density, 308.15 K [kg/m3] | mass density, 318.15 K [kg/m3] | speed of sound, 278.15 K [m/s] | speed of sound, 288.15 K [m/s] | speed of sound, 298.15 K [m/s] | speed of sound, 308.15 K [m/s] | speed of sound, 318.15 K [m/s]
x1 = 0.0502 | 1010.1 | 997.8 | 985.37 | 972.78 | 960.03 | 1259.8 | 1215.5 | 1171.7 | 1128.2 | 1084.8
x1 = 0.1006 | 1058.3 | 1046.52 | 1034.65 | 1022.69 | 1010.6 | 1278.4 | 1236.5 | 1195.1 | 1153.8 | 1112.8
x1 = 0.1501 | 1099.41 | 1088.09 | 1076.72 | 1065.29 | 1053.78 | 1298.1 | 1258.5 | 1219.4 | 1180.5 | 1141.9
x1 = 0.2001 | 1135.42 | 1124.48 | 1113.53 | 1102.55 | 1091.53 | 1316.6 | 1279.2 | 1242.4 | 1205.9 | 1169.7
x1 = 0.3003 | 1196.62 | 1186.31 | 1176.03 | 1165.76 | 1155.5 | 1350.2 | 1316.6 | 1283.5 | 1250.8 | 1218.7
x1 = 0.3999 | 1243.17 | 1233.3 | 1223.49 | 1213.71 | 1203.97 | 1376.9 | 1346 | 1315.8 | 1285.9 | 1256.7
x1 = 0.4997 | 1281.71 | 1272.18 | 1262.72 | 1253.32 | 1243.97 | 1400 | 1371.2 | 1343 | 1315.5 | 1288.5
x1 = 0.6 | 1313.96 | 1304.71 | 1295.53 | 1286.43 | 1277.38 | 1420.4 | 1393.3 | 1366.8 | 1340.9 | 1315.6
x1 = 0.7 | 1341.07 | 1332.05 | 1323.1 | 1314.23 | 1305.42 | 1438.5 | 1412.7 | 1387.6 | 1362.9 | 1338.9
x1 = 0.7986 | 1363.97 | 1355.14 | 1346.39 | 1337.7 | 1329.08 | 1454.4 | 1429.7 | 1405.6 | 1382 | 1358.9
x1 = 0.8509 | 1374.9 | 1366.17 | 1357.51 | 1348.91 | 1340.38 | 1462.2 | 1438 | 1414.4 | 1391.2 | 1368.6
x1 = 0.9008 | 1384.25 | 1375.61 | 1367.03 | 1358.51 | 1350.04 | 1469.1 | 1445.3 | 1422 | 1399.2 | 1377
x1 = 0.9504 | 1393.09 | 1384.52 | 1376.02 | 1367.58 | 1359.19 | 1475.6 | 1452 | 1429.1 | 1406.7 | 1384.8
